This is an account of results in article PMC10127554 (Chemical biology & drug design, 2022).

In data set [1] the test system is NCI-H522 cells. As to the kind of experiment: Antiproliferative activity, CellTiter Glo assay, NCI-H522. Conditions: Homo sapiens, NCI-H522, 72 h, read-out: IC50 NCIH522. On the technique in general: In ATP-based viability assays light output follows the ATP content of the culture.
A further data set relates to A549 cells. Description: Antiproliferative activity, CellTiter Glo assay, A549. The note with it: Homo sapiens, A549, 72 h, read-out: IC50 A549.
Data set [2] relates to non-cancerous human lung fibroblast cells (HLF). As to the kind of experiment: Cytotoxicity, CellTiter Glo assay, non-cancerous human lung fibroblast cells. The class given is cell-based. Conditions: for IC50: Homo sapiens, Fibroblast, 72 h, read-out: IC50 Non-cancerous HLF.
Data set [3] concerns NCI-H522 cells. As to the kind of experiment: Cell cycle analysis by flow cytometry. The class given is cell-based, human. The note with it: 48hrs at 5 μM.
In data set [4] the test system is panel of 485 kinases (including 110 oncogenic kinases). Description: Kinase activity profiling. It counts as biochemical.
For the next data set, the target named is T1, ANKK1 (Homo sapiens, UniProt Q8NFD2).
T1 sequence (Q8NFD2 1-765): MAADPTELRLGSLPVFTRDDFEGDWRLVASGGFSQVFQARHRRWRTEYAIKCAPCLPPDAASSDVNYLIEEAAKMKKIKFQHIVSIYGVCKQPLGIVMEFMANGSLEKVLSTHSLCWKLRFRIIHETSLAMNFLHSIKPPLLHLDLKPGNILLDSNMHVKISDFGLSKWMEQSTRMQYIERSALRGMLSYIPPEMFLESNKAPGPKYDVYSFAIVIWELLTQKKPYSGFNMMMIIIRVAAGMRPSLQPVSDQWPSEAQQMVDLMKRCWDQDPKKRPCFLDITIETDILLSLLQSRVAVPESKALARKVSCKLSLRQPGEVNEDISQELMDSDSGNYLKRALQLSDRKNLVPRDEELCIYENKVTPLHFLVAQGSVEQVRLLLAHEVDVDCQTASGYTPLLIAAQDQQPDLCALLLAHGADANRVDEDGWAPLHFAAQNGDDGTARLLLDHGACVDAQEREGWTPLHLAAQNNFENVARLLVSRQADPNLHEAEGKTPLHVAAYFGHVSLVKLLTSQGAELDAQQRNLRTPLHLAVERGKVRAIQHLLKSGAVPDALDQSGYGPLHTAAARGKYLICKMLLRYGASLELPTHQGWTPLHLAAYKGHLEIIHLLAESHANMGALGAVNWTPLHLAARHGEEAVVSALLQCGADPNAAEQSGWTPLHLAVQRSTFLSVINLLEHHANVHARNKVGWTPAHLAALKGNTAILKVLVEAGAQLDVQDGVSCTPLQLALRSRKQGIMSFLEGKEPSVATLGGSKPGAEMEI
Description: Kinase activity profiling. It counts as biochemical. The note with it: concentration not given.

In the next data set the target is ACVRL1 (Homo sapiens, UniProt P37023). Description: Kinase activity profiling. It counts as biochemical. Conditions: concentration not given.
Sequence of ACVRL1 (P37023 22-503): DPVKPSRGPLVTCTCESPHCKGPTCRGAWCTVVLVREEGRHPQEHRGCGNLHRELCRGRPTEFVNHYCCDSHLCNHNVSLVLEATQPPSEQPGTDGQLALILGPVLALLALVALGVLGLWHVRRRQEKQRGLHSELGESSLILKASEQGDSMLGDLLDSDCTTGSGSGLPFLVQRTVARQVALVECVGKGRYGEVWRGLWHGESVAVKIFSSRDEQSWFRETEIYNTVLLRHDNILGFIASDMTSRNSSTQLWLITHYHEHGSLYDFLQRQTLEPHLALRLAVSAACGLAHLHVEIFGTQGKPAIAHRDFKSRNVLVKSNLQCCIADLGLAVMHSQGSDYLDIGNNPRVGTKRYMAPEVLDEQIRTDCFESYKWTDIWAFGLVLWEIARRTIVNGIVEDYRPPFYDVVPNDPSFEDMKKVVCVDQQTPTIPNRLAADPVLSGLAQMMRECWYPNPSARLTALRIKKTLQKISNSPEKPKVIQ
The target in a further data set is T2, NUAK2 (Homo sapiens, UniProt Q9H093).
T2 sequence (Q9H093 1-628): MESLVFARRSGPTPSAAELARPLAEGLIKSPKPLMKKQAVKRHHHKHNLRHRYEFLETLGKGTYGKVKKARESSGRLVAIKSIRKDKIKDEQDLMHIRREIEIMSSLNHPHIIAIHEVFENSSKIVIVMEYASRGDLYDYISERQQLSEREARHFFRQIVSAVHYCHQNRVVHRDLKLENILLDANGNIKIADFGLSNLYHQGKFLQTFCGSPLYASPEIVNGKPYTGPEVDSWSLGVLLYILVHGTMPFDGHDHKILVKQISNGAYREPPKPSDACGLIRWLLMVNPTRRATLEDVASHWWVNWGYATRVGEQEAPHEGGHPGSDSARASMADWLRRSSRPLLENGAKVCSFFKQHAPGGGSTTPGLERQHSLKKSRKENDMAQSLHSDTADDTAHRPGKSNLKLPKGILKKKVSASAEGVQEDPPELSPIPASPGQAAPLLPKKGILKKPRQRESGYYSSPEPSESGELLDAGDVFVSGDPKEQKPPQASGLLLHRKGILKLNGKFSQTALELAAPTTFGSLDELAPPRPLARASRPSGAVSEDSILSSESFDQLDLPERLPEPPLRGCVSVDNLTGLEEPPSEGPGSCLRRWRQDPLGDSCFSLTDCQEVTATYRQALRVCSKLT
Description: Kinase activity profiling. The note with it: concentration not given. The class given is biochemical.

As a reminder, the IC50 is the concentration that gives 50% inhibition. On to `O=C1CC(c2ccccc2)=NN1c1ccc(Cl)cc1` [P5, 2-(4-chlorophenyl)-5-phenyl-2,4-dihydro-3H-pyrazol-3-one], for which the IC50 with NCI-H522 cells [1] was 4.5 ± 1.16 µM; in the data set with A549 cells, 1.98 ± 1.1 µM; in data set [2], 0.99 ± 1.25 µM.

Take `COc1cccc(C2=NN(c3ccccc3)C(=O)C2)c1` [P10, 5-(3-methoxyphenyl)-2-phenyl-2,4-dihydro-3H-pyrazol-3-one]: the IC50 in the data set on NCI-H522 cells [1] and with A549 cells was above 100 µM in each case.

`O=C1CC(c2ccc(C(F)(F)F)cc2)=NN1c1ccccc1` [P11, 2-phenyl-5-(4-(trifluoromethyl)phenyl)-2,4-dihydro-3H-pyrazol-3-one]: the IC50 in the data set on NCI-H522 cells [1] came to 4.88 ± 1.73 µM; in the data set with A549 cells, 5.98 ± 0.84 µM; in data set [2], 26.1 ± 1.12 µM. Also, the “effect on cell cycle progression” value with NCI-H522 cells [3] is on record as “more cell population in G0/G1 phase”.

For `O=C1CC(c2ccc(Br)cc2)=NN1c1ccc(C(F)(F)F)cc1` [P16, 5-(4-bromophenyl)-2-(4-(trifluoromethyl)phenyl)-2,4-dihydro-3H-pyrazol-3-one], the IC50 with NCI-H522 cells [1] was determined as 2.95 ± 0.18 µM; in the data set on A549 cells, 3.37 ± 0.1 µM; in data set [2] it was 1.45 ± 1.14 µM.

With `O=C1CC(c2ccc(Br)cc2)=NN1c1ccc(Br)cc1` [P14, 2,5-bis(4-bromophenyl)-2,4-dihydro-3H-pyrazol-3-one], the IC50 in the data set on NCI-H522 cells [1] was determined as 2.41 ± 0.57 µM; with A549 cells it was 2.73 ± 0.28 µM; in data set [2] it was 2.55 ± 1.1 µM. Further, the “effect on cell cycle progression” value in the data set with NCI-H522 cells [3] was “more cell population in G2/M phase”.

In the case of `CCCC1=NN(c2ccccc2)C(=O)C1` [P2, 2-phenyl-5-propyl-2,4-dihydro-3H-pyrazol-3-one], the IC50 in the data set with NCI-H522 cells [1] and in the data set on A549 cells was above 100 µM each time.

Take `O=C1CC(c2cc(F)c(F)c(F)c2F)=NN1c1ccccc1` [P12, 2-phenyl-5-(2,3,4,5-tetrafluorophenyl)-2,4-dihydro-3H-pyrazol-3-one]: the IC50 with NCI-H522 cells [1] amounted to 9.9 ± 2.44 µM; in the data set on A549 cells, 8.6 ± 0.59 µM; in data set [2], 8.52 ± 1.09 µM.

Consider `O=C1CC(c2ccc(Br)cc2)=NN1c1ccccc1` [P7, 5-(4-bromophenyl)-2-phenyl-2,4-dihydro-3H-pyrazol-3-one], for which the results for the IC50 (in the data set on NCI-H522 cells [1]; with A549 cells; in data set [2]) were 4.7 ± 1.38 µM, 6.35 ± 0.85 µM and 61.3 ± 1.08 µM, respectively. Besides, the “effect on cell cycle progression” value with NCI-H522 cells [3] is listed as “more cell population in G0/G1 phase”. For the same compound, the “inhibitory activity over panel of 485 kinases” value in data set [4] was “no potential inhibitory activity against any tested kinase”. The “inhibitory activity against ANKK1” value against ANKK1 is on record as 50%. Moreover, the “inhibitory activity against ACVRL1” value against ACVRL1 amounted to 47%. Also, the “times less cytotoxic to non-cancerous cells” value in data set [2] (non-cancerous cells versus A549 and NCIH522 cancer cell lines) stood at 10 times. Moreover, at NUAK2, the “inhibitory activity against NUAK2” value came out at 41%.

On to `O=C1CC(c2ccccc2)=NN1c1ccc(Br)cc1` [P4, 2-(4-bromophenyl)-5-phenyl-2,4-dihydro-3H-pyrazol-3-one], for which the IC50 is 4.93 ± 1.13 µM in the data set with NCI-H522 cells [1], 2.61 ± 1.12 µM with A549 cells and 0.72 ± 1.07 µM in data set [2].

Consider `COc1ccc(C2=NN(c3ccccc3)C(=O)C2)cc1` [P9, 5-(4-methoxyphenyl)-2-phenyl-2,4-dihydro-3H-pyrazol-3-one], for which the IC50 was found to be 51.2 ± 3.06 µM in the data set on NCI-H522 cells [1] and 42.2 ± 2.76 µM in the data set on A549 cells.

For `O=C1CC(c2ccc(F)cc2)=NN1c1ccccc1` [P8, 5-(4-fluorophenyl)-2-phenyl-2,4-dihydro-3H-pyrazol-3-one], the IC50 was 17.9 ± 3.36 µM in the data set with NCI-H522 cells [1], 9.51 ± 3.12 µM in the data set on A549 cells and 17.7 ± 1.1 µM in data set [2].

With `O=C1CC(c2ccccc2)=NN1c1ccccc1` [P3, 2,5-diphenyl-2,4-dihydro-3H-pyrazol-3-one], the results for the IC50 (in the data set on NCI-H522 cells [1]; with A549 cells; in data set [2]) were 17 ± 2.61 µM, 10.3 ± 1.55 µM and 25.1 ± 1.39 µM, respectively.

Regarding `O=C1CC(c2ccc([N+](=O)[O-])cc2)=NN1c1ccccc1` [P6, 5-(4-nitrophenyl)-2-phenyl-2,4-dihydro-3H-pyrazol-3-one], the IC50 with NCI-H522 cells [1] amounted to 40.5 ± 2.3 µM; with A549 cells, 39.6 ± 1.05 µM; in data set [2], 26.8 ± 1.4 µM.

For the compound `O=C1CC(c2ccc(Br)cc2)=NN1c1cc(Cl)cc(Cl)c1` [P17, 5-(4-bromophenyl)-2-(3,5-dichlorophenyl)-2,4-dihydro-3H-pyrazol-3-one], the half-inhibitory concentration (IC50) in the data set with NCI-H522 cells [1] was determined as 5.07 ± 1.18 µM; with A549 cells, 5.56 ± 0.07 µM; in data set [2] it was 6.94 ± 1.12 µM.

As for `O=C1CC(c2ccc(F)cc2)=NN1c1ccc(Br)cc1` [P13, 2-(4-bromophenyl)-5-(4-fluorophenyl)-2,4-dihydro-3H-pyrazol-3-one], the IC50 in the data set on NCI-H522 cells [1] was 3.7 ± 0.34 µM; in the data set on A549 cells it was 2.67 ± 0.51 µM; in data set [2], 3.57 ± 1.15 µM. Also, the “effect on cell cycle progression” value in the data set on NCI-H522 cells [3] was “more cell population in G2/M phase”.

With `CN(C)C/C=C/C(=O)Nc1cc2c(Nc3ccc(F)c(Cl)c3)ncnc2cc1O[C@H]1CCOC1` [PC-1, Afatinib, reference compound], the IC50 in the data set on NCI-H522 cells [1] was 5.34 ± 0.94 µM; in the data set with A549 cells it was 8.46 ± 2.03 µM; in data set [2] it was 12.2 ± 3.12 µM.

In the case of `CC1=NN(c2ccccc2)C(=O)C1(C)O` (stereo not drawn) [P1, 4-hydroxy-4,5-dimethyl-2-phenyl-2,4-dihydro-3H-pyrazol-3-one], the IC50 (in the data set on NCI-H522 cells [1]; in the data set with A549 cells; in data set [2]) was above 100 µM in each case.
